The structures appear in SMILES notation.

The record followed here is patent US20220370440A1 (Lead Discovery Center GmbH, priority 2018, published 2022).

A short description of data set [1]: Metabolic stability in mouse liver microsomes without cofactor NADPH. Conditions: 3 μM test compound, mouse liver microsomes, without NADPH, 50 min, 37° C., LC-MS/MS. In kind it is in vitro ADME. An excerpt:
There are two major groups of enzyme reactions catalyzed by drug metabolizing enzymes, the so called Phase I and Phase II reactions. The basic processes in phase I reactions are oxidation, reduction and/or hydrolysis mostly catalyzed by the cytochrome P450 (CYP) family of enzymes.
The following procedures describe the determination of the in vitro Phase I metabolic stability of test compounds using liver microsomes by measuring compound depletion over time. Test compound at the concentration of 3 μM was incubated with the liver microsomes from the mouse species and the experiment was performed without NADPH. The depletion of the test compounds was measured over time up to 50 minutes at 37° C. by LC-MS/MS. Different compounds were tested under these conditions for microsomal stability (see Table 5).

The subject of data set [2] is H1975. The data set can be described thus: H1975 CellTiter-Glo. In kind it is cell-based. As to conditions: Homo sapiens, NCI-H1975; 72 h compound incubation; read-out: H1975 CTG IC50. An outline of the steps: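 Seed cells; incubate 24 h at 37° C., 5% CO2; add compound in DMSO over a concentration range; incubate 72 h; add CellTiter-Glo reagent, stabilise 10 min at room temperature; read luminescence; fit IC50.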

Data set [3] has as its target EGFR T790ML858R (Homo sapiens, UniProt P00533, L858R/T790M). In words: EGFR T790ML858R Lance assay. In kind it is biochemical. The procedure: (§1) Inhibition is indicated as […] [nM] (“−”=not measured). Compounds having an activity designated as “A” provided an IC50≤100 nM; compounds having an activity designated as “B” provided an 100 nM<IC50≤500 nM; compounds having an activity designated as “C” provided an 500 nM<IC50≤1000 nM; compounds having an activity designated as “D” provided an 1000 nM<IC50≤100000 nM; and compounds having an activity designated as “E” provided an IC50>10000 nM.

In data set [4] the target is T1, HER2 INS YVMA (Homo sapiens, UniProt P04626, INS775YVMA).
T1 construct: purchased DPF
T1 sequence (P04626 with tags, fused parts or gaps INS775YVMA): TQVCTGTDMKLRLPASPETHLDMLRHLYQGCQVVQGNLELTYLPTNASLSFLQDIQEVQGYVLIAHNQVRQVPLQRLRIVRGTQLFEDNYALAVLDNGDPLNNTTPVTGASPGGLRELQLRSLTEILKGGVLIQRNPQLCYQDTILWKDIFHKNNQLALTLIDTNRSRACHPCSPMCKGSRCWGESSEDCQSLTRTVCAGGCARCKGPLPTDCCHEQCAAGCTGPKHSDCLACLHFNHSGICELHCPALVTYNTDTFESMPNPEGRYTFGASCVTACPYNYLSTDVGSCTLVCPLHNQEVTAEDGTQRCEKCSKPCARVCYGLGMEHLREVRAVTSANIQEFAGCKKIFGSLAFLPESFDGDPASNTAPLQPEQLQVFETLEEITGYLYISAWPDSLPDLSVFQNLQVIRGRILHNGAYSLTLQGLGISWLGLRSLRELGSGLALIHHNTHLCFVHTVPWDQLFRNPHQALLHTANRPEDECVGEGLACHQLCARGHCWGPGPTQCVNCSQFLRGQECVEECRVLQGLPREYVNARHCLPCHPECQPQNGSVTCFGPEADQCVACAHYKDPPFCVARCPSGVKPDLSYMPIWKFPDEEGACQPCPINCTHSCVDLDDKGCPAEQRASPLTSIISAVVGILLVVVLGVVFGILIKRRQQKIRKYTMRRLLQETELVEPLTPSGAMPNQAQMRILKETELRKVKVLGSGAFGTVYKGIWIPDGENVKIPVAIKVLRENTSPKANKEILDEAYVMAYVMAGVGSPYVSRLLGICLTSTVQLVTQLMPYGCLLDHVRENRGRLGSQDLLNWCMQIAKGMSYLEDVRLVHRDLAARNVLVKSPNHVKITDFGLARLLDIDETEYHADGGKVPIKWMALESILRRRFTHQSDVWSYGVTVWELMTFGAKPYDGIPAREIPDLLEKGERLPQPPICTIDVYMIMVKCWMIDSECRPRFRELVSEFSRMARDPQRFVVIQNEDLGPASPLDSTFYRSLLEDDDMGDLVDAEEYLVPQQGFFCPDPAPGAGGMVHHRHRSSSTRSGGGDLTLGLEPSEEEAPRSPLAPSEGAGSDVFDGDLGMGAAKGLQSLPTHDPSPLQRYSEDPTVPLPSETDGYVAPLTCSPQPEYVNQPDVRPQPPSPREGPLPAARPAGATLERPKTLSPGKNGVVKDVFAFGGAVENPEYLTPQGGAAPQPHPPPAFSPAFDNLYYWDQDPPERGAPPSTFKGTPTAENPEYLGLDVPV
In words: Lance Kinase Activity Assay, HER2 INS YVMA (Her2 Exon 20 INSYVMA Lance). In kind it is biochemical. As to conditions: biochemical Lance assay. An outline of the steps: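 IC50 was fitted to sigmoidal curves of TR-FRET signal (665 and 615 nm emission after 340 nm excitation) from an Eu anti-phospho antibody binding the phosphorylated ULight peptide. The ATP-started reaction ran 1 h at RT and was then quenched with 10 mM EDTA plus antibody for a further 1 h. Compounds were tested as 8-point, 3-fold dilutions.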

Data set [5] deals with Her2 Exon 20 INSYVMA Ba/F3 (Homo sapiens, UniProt P04626, DUP772-775, cells depend on it). In words: Her2 Exon 20 INSYVMA Ba/F3 CellTiter-Glo. In kind it is cell-based. As to conditions: CellTiter-Glo, 72 h, read-out: Her2 Exon 20 INSYVMA Ba/F3 CTG IC50. In a few lines:
(§2)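 Seed Ba/F3 cells; 24 h, 37 °C/5% CO2. Add cpds in DMSO, multiple concs; 72 h. CellTiter-Glo, 10 min RT, luminescence. IC50 by curve fit. Z′ ≥0.5 from DMSO vs 10 μM staurosporine.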

Data set [6] has as its target EGFR Exon 20 INSNPH Ba/F3 (Homo sapiens, UniProt P00533, DUP771-773, cells depend on it). The data set can be described thus: EGFR Exon 20 INSNPH Ba/F3 CellTiter-Glo. Conditions: CellTiter-Glo, 72 h, read-out: EGFR Exon 20 INSNPH Ba/F3 CTG IC50. In kind it is cell-based. In a few lines: as §2
In general terms: In ATP-based viability assays light output follows the ATP content of the culture.

Data set [7] addresses EGFR wt (Homo sapiens, UniProt P00533). In words: EGFR wt Lance assay. In kind it is biochemical. The procedure:
as §1

EGFR wt, sequence (P00533 25-1210): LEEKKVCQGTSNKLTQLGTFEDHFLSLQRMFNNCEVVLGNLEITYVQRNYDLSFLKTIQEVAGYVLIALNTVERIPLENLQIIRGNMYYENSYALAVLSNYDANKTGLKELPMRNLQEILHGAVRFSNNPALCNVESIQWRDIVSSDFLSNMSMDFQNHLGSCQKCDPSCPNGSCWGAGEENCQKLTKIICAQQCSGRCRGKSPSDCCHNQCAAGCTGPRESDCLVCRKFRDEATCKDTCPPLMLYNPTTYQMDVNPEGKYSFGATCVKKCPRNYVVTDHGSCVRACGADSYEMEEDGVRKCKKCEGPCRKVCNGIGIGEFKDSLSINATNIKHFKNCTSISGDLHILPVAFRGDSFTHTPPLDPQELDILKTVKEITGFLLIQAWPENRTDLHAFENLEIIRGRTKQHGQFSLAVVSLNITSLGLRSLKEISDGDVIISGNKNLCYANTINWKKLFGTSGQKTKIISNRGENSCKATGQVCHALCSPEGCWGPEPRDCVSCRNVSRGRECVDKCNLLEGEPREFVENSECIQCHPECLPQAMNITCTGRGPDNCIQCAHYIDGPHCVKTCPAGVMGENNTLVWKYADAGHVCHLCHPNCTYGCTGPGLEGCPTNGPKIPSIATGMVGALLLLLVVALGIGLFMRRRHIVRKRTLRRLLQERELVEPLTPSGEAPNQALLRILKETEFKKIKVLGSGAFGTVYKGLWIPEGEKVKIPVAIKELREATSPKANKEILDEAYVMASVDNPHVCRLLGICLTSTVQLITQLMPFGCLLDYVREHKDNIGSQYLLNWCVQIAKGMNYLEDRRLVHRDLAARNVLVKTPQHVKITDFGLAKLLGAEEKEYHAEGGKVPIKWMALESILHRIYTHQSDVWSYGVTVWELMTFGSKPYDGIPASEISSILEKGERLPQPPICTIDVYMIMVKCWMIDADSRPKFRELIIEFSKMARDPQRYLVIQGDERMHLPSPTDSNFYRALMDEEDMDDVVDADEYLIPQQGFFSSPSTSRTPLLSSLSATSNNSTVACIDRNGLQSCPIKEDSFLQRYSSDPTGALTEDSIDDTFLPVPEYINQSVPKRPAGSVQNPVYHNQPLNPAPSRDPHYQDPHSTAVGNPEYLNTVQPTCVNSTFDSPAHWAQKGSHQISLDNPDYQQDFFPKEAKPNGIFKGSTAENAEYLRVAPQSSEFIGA
EGFR Exon 20 INSNPH Ba/F3, sequence (P00533 with tags, fused parts or gaps DUP771-773): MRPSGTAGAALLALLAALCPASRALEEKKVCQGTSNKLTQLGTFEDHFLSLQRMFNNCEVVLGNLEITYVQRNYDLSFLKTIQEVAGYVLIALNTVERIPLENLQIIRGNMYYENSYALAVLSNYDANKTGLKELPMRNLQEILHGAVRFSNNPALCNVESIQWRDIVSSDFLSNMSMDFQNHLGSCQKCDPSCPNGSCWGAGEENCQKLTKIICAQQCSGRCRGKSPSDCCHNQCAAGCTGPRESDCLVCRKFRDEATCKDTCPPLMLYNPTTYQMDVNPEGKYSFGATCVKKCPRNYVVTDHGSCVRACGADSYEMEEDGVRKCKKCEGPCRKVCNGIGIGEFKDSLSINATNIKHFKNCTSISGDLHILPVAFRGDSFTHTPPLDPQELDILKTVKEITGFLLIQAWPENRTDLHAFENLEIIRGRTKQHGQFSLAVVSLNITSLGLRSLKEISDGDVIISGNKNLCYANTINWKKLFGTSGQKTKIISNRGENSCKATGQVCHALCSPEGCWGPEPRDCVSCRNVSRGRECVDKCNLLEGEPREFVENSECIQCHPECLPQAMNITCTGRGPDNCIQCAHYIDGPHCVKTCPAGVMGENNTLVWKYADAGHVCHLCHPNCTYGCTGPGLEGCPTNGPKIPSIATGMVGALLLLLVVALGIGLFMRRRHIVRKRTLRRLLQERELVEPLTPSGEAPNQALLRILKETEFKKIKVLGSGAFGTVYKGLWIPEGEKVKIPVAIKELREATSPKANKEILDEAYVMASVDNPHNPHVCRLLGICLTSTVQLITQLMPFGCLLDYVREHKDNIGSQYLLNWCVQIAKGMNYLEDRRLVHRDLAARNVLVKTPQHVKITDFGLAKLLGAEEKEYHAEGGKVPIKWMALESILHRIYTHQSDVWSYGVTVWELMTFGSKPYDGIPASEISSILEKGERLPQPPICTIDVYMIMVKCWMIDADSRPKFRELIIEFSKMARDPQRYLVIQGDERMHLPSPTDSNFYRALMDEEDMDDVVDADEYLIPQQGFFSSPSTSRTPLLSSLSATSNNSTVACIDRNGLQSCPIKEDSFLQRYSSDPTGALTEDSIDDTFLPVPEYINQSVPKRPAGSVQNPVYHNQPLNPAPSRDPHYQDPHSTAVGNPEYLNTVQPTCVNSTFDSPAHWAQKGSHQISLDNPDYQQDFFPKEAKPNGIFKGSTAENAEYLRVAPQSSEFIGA
EGFR T790ML858R, sequence (P00533 25-1210 T790M/L858R): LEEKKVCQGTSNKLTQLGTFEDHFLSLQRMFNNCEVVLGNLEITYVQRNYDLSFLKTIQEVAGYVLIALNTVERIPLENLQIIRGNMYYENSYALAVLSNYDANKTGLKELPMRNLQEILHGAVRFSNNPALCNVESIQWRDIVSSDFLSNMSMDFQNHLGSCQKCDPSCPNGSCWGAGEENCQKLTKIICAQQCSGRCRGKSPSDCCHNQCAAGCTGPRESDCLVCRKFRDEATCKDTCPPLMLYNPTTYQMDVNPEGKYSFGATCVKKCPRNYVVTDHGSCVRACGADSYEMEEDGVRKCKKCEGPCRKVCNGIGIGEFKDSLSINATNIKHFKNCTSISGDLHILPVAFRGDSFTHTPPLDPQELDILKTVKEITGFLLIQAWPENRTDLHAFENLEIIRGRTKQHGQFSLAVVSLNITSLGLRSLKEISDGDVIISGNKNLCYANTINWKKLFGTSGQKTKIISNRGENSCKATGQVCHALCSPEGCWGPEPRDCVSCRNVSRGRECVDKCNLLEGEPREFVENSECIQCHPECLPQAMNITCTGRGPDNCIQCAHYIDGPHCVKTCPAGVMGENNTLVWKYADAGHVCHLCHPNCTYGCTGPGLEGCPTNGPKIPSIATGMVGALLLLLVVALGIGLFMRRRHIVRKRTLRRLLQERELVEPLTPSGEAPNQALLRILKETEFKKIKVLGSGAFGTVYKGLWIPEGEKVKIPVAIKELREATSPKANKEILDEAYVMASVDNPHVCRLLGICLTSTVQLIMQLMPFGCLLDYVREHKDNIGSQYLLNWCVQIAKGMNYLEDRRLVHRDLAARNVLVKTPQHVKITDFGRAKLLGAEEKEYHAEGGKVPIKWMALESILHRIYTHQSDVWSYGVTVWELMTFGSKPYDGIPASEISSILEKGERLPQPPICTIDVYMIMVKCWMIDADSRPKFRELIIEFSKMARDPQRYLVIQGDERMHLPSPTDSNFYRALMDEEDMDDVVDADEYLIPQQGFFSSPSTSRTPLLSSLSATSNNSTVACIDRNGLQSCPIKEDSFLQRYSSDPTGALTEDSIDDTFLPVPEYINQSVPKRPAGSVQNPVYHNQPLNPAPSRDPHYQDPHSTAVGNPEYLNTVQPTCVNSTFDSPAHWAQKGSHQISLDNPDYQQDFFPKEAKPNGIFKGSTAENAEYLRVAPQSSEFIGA

As to `C=CC(=O)Nc1cc(-c2c(-c3ccc(C4CCNCC4)cc3)[nH]c3nccc(Cl)c23)ccc1C` [Example 29, N-(5-(4-chloro-2-(4-(piperidin-4-yl)phenyl)-1H-pyrrolo[2,3-b]pyridin-3-yl)-2-methylphenyl)acrylamide], the “Stability in presence of mouse liver microsomes without cofactor NADPH [% remaining after 50 min]” value in data set [1] is greater than 99 % remaining after 50 min. Also, the IC50 in data set [2], in data set [3], in data set [4] and in data set [7] was no more than 100 nM each time. Further, the GI50 in data set [5] and in data set [6] was 500 to 1000 nM each time.
Regarding `C=CC(=O)Nc1cc(-c2c(-c3cccc(C(=O)N4CCOCC4)c3)[nH]c3nccc(Cl)c23)ccc1C` [Example 27, N-(5-(4-chloro-2-(3-(morpholine-4-carbonyl)phenyl)-1H-pyrrolo[2,3-b]pyridin-3-yl)-2-methylphenyl)acrylamide], the “Stability in presence of mouse liver microsomes without cofactor NADPH [% remaining after 50 min]” value in data set [1] was greater than 99 % remaining after 50 min. In addition, the IC50 in data set [2] was 100 to 500 nM; in data set [3], no more than 100 nM; in data set [4], 500 to 1000 nM; in data set [7] it was 100 to 500 nM. Moreover, the GI50 in data set [5] and in data set [6] was 1000 to 10000 nM in each case.
Consider `C=CC(=O)Nc1cc(-c2c(-c3ccc(N4CCN(C(C)=O)CC4)nc3)[nH]c3nccc(Cl)c23)ccc1C` [Example 31, N-(5-(2-(6-(4-acetylpiperazin-1-yl)pyridin-3-yl)-4-chloro-1H-pyrrolo[2,3-b]pyridin-3-yl)-2-methylphenyl)acrylamide], for which the “Stability in presence of mouse liver microsomes without cofactor NADPH [% remaining after 50 min]” value in data set [1] was greater than 99 % remaining after 50 min. For the same molecule, the IC50 is 100 to 500 nM in data set [2], no more than 100 nM in data set [3], 100 to 500 nM in data set [4] and 500 to 1000 nM in data set [7]. Also, the GI50 in data set [5] and in data set [6] was 1000 to 10000 nM each time.
On to `C=CC(=O)Nc1cc(-c2c(-c3ccc(NS(C)(=O)=O)cc3)[nH]c3nccc(Cl)c23)ccc1C` [Example 12, N-(5-(4-chloro-2-(4-(methylsulfonamido)phenyl)-1H-pyrrolo[2,3-b]pyridin-3-yl)-2-methylphenyl)acrylamide], for which the “Stability in presence of mouse liver microsomes without cofactor NADPH [% remaining after 50 min]” value in data set [1] is recorded as greater than 99 % remaining after 50 min. Also, the IC50 in data set [2] is no more than 100 nM; in data set [3] it was no more than 100 nM; in data set [4], 100 to 500 nM; in data set [7], no more than 100 nM. Besides, the GI50 in data set [5] and in data set [6] was 100 to 500 nM throughout.
In the case of `C=CC(=O)Nc1cc(-c2c(-c3ccc(N4CCOCC4)nc3)[nH]c3nccc(Cl)c23)ccc1C` [Example 30, N-(5-(4-chloro-2-(6-morpholinopyridin-3-yl)-1H-pyrrolo[2,3-b]pyridin-3-yl)-2-methylphenyl)acrylamide], in data set [1], the “Stability in presence of mouse liver microsomes without cofactor NADPH [% remaining after 50 min]” value is recorded as greater than 99 % remaining after 50 min. The IC50 in data set [2] was 100 to 500 nM; in data set [3] it was no more than 100 nM; in data set [4], 100 to 500 nM; in data set [7] it was no more than 100 nM. Further, the GI50 in data set [5] fell in the range of 1000 to 10000 nM; in data set [6], 500 to 1000 nM.
In the case of `C=CC(=O)Nc1cc(-c2c(-c3ccnc(N4CCOCC4)c3)[nH]c3nccc(Cl)c23)ccc1C` [Example 32, N-(5-(4-chloro-2-(2-morpholinopyridin-4-yl)-1H-pyrrolo[2,3-b]pyridin-3-yl)-2-methylphenyl)acrylamide], the “Stability in presence of mouse liver microsomes without cofactor NADPH [% remaining after 50 min]” value in data set [1] is listed as greater than 99 % remaining after 50 min. For the same molecule, the IC50 is no more than 100 nM in data set [2], no more than 100 nM in data set [3], 100 to 500 nM in data set [4] and no more than 100 nM in data set [7]. Besides, the GI50 in data set [5] and in data set [6] was 500 to 1000 nM throughout.
`C=CC(=O)Nc1cc(-c2c(-c3ccc(C4CCN(C)CC4)cc3)[nH]c3nccc(OCC)c23)ccc1C` [Example 147, 2,2,2-trifluoroacetate]: in data set [1], the “Stability in presence of mouse liver microsomes without cofactor NADPH [% remaining after 50 min]” value is 94 % remaining after 50 min. For the same molecule, the IC50 in data set [2], in data set [3], in data set [4] and in data set [7] was no more than 100 nM throughout. In addition, the GI50 in data set [5] and in data set [6] was 500 to 1000 nM throughout.
Consider `C=CC(=O)Nc1cc(-c2c(-c3ccc(NC(C)=O)cc3)[nH]c3nccc(Cl)c23)ccc1C` [Example 14, N-(5-(2-(4-acetamidophenyl)-4-chloro-1H-pyrrolo[2,3-b]pyridin-3-yl)-2-methylphenyl)acrylamide], for which the “Stability in presence of mouse liver microsomes without cofactor NADPH [% remaining after 50 min]” value in data set [1] turned out to be 68 % remaining after 50 min. Moreover, the IC50 in data set [2] is 100 to 500 nM; in data set [3], no more than 100 nM; in data set [4], 100 to 500 nM; in data set [7], no more than 100 nM. The GI50 in data set [5] and in data set [6] was 500 to 1000 nM in each case.
Take `C=CC(=O)Nc1cc(-c2c(-c3cccc(N4CCOCC4)c3)[nH]c3nccc(Cl)c23)ccc1C` [Example 6, N-(5-(4-chloro-2-(3-morpholinophenyl)-1H-pyrrolo[2,3-b]pyridin-3-yl)-2-methylphenyl)acrylamide]: the “Stability in presence of mouse liver microsomes without cofactor NADPH [% remaining after 50 min]” value in data set [1] is reported as greater than 99 % remaining after 50 min. In addition, the IC50 in data set [2] was 100 to 500 nM; in data set [3] it was no more than 100 nM; in data set [4] it was 500 to 1000 nM; in data set [7] it was no more than 100 nM. Besides, the GI50 in data set [5] and in data set [6] was 500 to 1000 nM throughout.
`C=CC(=O)Nc1cc(-c2c(-c3cccc(OCCCN(C)C)c3)[nH]c3nccc(Cl)c23)ccc1C` [Example 20, N-(5-(4-chloro-2-(3-(3-(dimethylamino)propoxy)phenyl)-1H-pyrrolo[2,3-b]pyridin-3-yl)-2-methylphenyl)acrylamide]: the “Stability in presence of mouse liver microsomes without cofactor NADPH [% remaining after 50 min]” value in data set [1] is greater than 99 % remaining after 50 min. Besides, the IC50 in data set [2], in data set [3], in data set [4] and in data set [7] was no more than 100 nM in each case. Besides, the GI50 in data set [5] and in data set [6] was 500 to 1000 nM in each case.
For `C=CC(=O)Nc1cc(-c2c(-c3cccc(CN4CCN(C(C)=O)CC4)c3)[nH]c3nccc(Cl)c23)ccc1C` [Example 22, N-(5-(2-(3-((4-acetylpiperazin-1-yl)methyl)phenyl)-4-chloro-1H-pyrrolo[2,3-b]pyridin-3-yl)-2-methylphenyl)acrylamide], the “Stability in presence of mouse liver microsomes without cofactor NADPH [% remaining after 50 min]” value in data set [1] is reported as greater than 99 % remaining after 50 min. For the same molecule, the IC50 in data set [2] is 100 to 500 nM; in data set [3], no more than 100 nM; in data set [4], 100 to 500 nM; in data set [7], 100 to 500 nM. In addition, the GI50 lay within 500 to 1000 nM in data set [5] and 1000 to 10000 nM in data set [6].
Consider `C=CC(=O)Nc1cc(-c2c(-c3ccc(N4CCN(C)CC4)cc3OC)[nH]c3nccc(Cl)c23)ccc1C` [Example 21, N-(5-(4-chloro-2-(2-methoxy-4-(4-methylpiperazin-1-yl)phenyl)-1H-pyrrolo[2,3-b]pyridin-3-yl)-2-methylphenyl)acrylamide], for which the “Stability in presence of mouse liver microsomes without cofactor NADPH [% remaining after 50 min]” value in data set [1] is 93 % remaining after 50 min. Besides, the IC50 in data set [2] was no more than 100 nM; in data set [3] it was no more than 100 nM; in data set [4] it was 100 to 500 nM; in data set [7], no more than 100 nM. For the same molecule, the GI50 in data set [5] and in data set [6] was 500 to 1000 nM in each case.

What is called IC50 is the concentration that inhibits the measured activity by half.
